Results from patent US8765730B2 (Hoffmann-La Roche Inc, priority 2010, dated 2014).

Molecular target: T1, human GPBAR1 receptor (Homo sapiens, UniProt Q8TDU6)
T1 construct: expressed in transfected cells
T1 sequence (Q8TDU6 1-330): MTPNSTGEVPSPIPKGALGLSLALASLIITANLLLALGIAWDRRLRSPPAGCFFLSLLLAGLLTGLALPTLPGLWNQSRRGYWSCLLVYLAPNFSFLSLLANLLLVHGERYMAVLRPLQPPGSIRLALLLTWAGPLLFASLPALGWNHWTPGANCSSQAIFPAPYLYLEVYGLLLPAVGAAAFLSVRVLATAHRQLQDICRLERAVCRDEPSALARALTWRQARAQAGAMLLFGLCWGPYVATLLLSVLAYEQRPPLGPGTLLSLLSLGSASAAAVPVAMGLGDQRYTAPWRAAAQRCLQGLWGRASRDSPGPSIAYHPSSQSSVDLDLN
Test: functional cAMP assay in CHO-dhfr(minus) cells expressing human GPBAR1 receptors
Assay type: cell-based
Settings: human EC50, functional cAMP assay, 30 min at 30° C.
Outline: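 Agonist cAMP read-out: stable GPBAR1 CHO-dhfr− clone, 30 min compound exposure at 30° C following 30 min IBMX (1 mM) preincubation in Krebs Ringer bicarbonate. Time-resolved energy-transfer detection gives EC50; parental CHO cells serve as counter-screen.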

Cc1cc(/C(C[C@H](c2ccc(-c3cn(CC(=O)O)nn3)cc2)c2ccccc2C)=N/O)ccn1 (single isomer, unassigned) [Example 425, (4-{4-[(−)-3-[(E)-Hydroxyimino]-3-(2-methyl-pyridin-4-yl)-1-o-tolyl-propyl]-phenyl}-[1,2,3]triazol-1-yl)-acetic acid]
EC50: 14 nM

Cc1cc(/C(C[C@H](c2ccc(Br)cc2)c2ccc(F)cc2F)=N/O)ccn1 (single isomer, unassigned) [Example 426, (−)-3-(4-Bromo-phenyl)-3-(2,4-difluoro-phenyl)-1-(2-methyl-pyridin-4-yl)-propan-1-one oxime]
EC50: 41 nM

Cc1cc(/C(C[C@H](c2ccc(N3CCC(C(=O)O)CC3)cc2)c2ccc(F)cc2F)=N/O)ccn1 (single isomer, unassigned) [Example 427, 1-{4-[(−)-1-(2,4-Difluoro-phenyl)-3-[(E)-hydroxyimino]-3-(2-methyl-pyridin-4-yl)-propyl]-phenyl}-piperidine-4-carboxylic acid]
EC50: 4 nM

Cc1cc(/C(C[C@@H](c2ccc(N3CCC(C(=O)O)CC3)cc2)c2ccc(F)cc2F)=N/O)ccn1 (single isomer, unassigned) [Example 428, 1-{4-[(+)-1-(2,4-Difluoro-phenyl)-3-[(E)-hydroxyimino]-3-(2-methyl-pyridin-4-yl)-propyl]-phenyl}-piperidine-4-carboxylic acid]
EC50: 18 nM

Cc1cc(/C(C[C@H](c2ccc(N3C[C@@H]4C(C(=O)O)[C@@H]4C3)cc2)c2ccc(F)cc2F)=N/O)ccn1 (single isomer, unassigned) [Example 429]
EC50: 2 nM

Cc1cc(/C(C[C@@H](c2ccc(N3CCC(CC(=O)O)CC3)cc2)c2ccc(F)cc2F)=N/O)ccn1 (single isomer, unassigned) [Example 430, (1-{4-[(+)-1-(2,4-Difluoro-phenyl)-3-[(E)-hydroxyimino]-3-(2-methyl-pyridin-4-yl)-propyl]-phenyl}-piperidin-4-yl)-acetic acid]
EC50: 21 nM

Cc1cc(/C(C[C@H](c2ccc(-c3ccc(C(=O)O)c(F)c3)cc2)c2ccc(Cl)cc2F)=N/O)ccn1 (single isomer, unassigned) [Example 448, 4′-[(−)-1-(4-Chloro-2-fluoro-phenyl)-3-[(E)-hydroxyimino]-3-(2-methyl-pyridin-4-yl)-propyl]-3-fluoro-biphenyl-4-carboxylic acid]
EC50: 18 nM

Cc1cc(/C(C[C@@H](c2ccc(-c3ccc(C(=O)O)c(F)c3)cc2)c2ccc(Cl)cc2F)=N/O)ccn1 (single isomer, unassigned) [Example 449, 4′-[(+)-1-(4-Chloro-2-fluoro-phenyl)-3-[(E)-hydroxyimino]-3-(2-methyl-pyridin-4-yl)-propyl]-3-fluoro-biphenyl-4-carboxylic acid]
EC50: 9 nM

Cc1cc(/C(C[C@@H](c2ccc(-c3ccc(C(=O)O)c(Cl)c3)cc2)c2ccc(Cl)cc2F)=N/O)ccn1 (single isomer, unassigned) [Example 453, (+)-3-Chloro-4′-[1-(4-chloro-2-fluoro-phenyl)-3-[(E)-hydroxyimino]-3-(2-methyl-pyridin-4-yl)-propyl]-biphenyl-4-carboxylic acid]
EC50: 5 nM

Cn1cc(/C(CC(c2ccc(-c3ccc(CC(=O)O)cc3)cc2)c2ccc(Cl)cc2F)=N/O)ccc1=O (single isomer, unassigned) [Example 461, {4′-[(−)-1-(4-Chloro-2-fluoro-phenyl)-3-[(E)-hydroxyimino]-3-(1-methyl-6-oxo-1,6-dihydro-pyridin-3-yl)-propyl]-biphenyl-4-yl}-acetic acid]
EC50: 156 nM

Cn1cc(/C(CC(c2ccc(-c3ccc(CC(=O)O)cc3)cc2)c2ccc(Cl)cc2F)=N/O)ccc1=O (single isomer, unassigned) [Example 462, {4′-[(+)-1-(4-chloro-2-fluoro-phenyl)-3-[(E)-hydroxyimino]-3-(1-methyl-6-oxo-1,6-dihydro-pyridin-3-yl)-propyl]-biphenyl-4-yl}-acetic acid]
EC50: 153 nM

Cn1cc(/C(C[C@H](c2ccc(-c3ccc(C(=O)O)c(F)c3)cc2)c2ccc(Cl)cc2F)=N/O)ccc1=O (single isomer, unassigned) [Example 463, 4′-[(−)-1-(4-Chloro-2-fluoro-phenyl)-3-[(E)-hydroxyimino]-3-(1-methyl-6-oxo-1,6-dihydro-pyridin-3-yl)-propyl]-3-fluoro-biphenyl-4-carboxylic acid]
EC50: 154 nM

Cn1cc(/C(C[C@@H](c2ccc(-c3ccc(C(=O)O)c(F)c3)cc2)c2ccc(Cl)cc2F)=N/O)ccc1=O (single isomer, unassigned) [Example 464, 4′-[(+)-1-(4-Chloro-2-fluoro-phenyl)-3-[(E)-hydroxyimino]-3-(1-methyl-6-oxo-1,6-dihydro-pyridin-3-yl)-propyl]-3-fluoro-biphenyl-4-carboxylic acid]
EC50: 152 nM

Cc1cc(C(=O)O)ccc1-c1ccc([C@@H](C/C(=N\O)c2ccc(=O)n(C)c2)c2ccc(Cl)cc2F)cc1 (single isomer, unassigned) [Example 465, 4′-[(−)-1-(4-Chloro-2-fluoro-phenyl)-3-[(E)-hydroxyimino]-3-(1-methyl-6-oxo-1,6-dihydro-pyridin-3-yl)-propyl]-2-methyl-biphenyl-4-carboxylic acid]
EC50: 350 nM

Cc1cc(C(=O)O)ccc1-c1ccc(C(C/C(=N\O)c2ccc(=O)n(C)c2)c2ccc(Cl)cc2F)cc1 (single isomer, unassigned) [Example 466, 4′-[(+)-1-(4-Chloro-2-fluoro-phenyl)-3-[(E)-hydroxyimino]-3-(1-methyl-6-oxo-1,6-dihydro-pyridin-3-yl)-propyl]-2-methyl-biphenyl-4-carboxylic acid]
EC50: 347 nM

CCOC(=O)c1ccc(-c2ccc([C@H](C/C(=N\O)c3ccc(=O)n(C)c3)c3ccc(Cl)cc3F)cc2)s1 (single isomer, unassigned) [Example 469, 5-{4-[(+)-1-(4-Chloro-2-fluoro-phenyl)-3-[(E)-hydroxyimino]-3-(1-methyl-6-oxo-1,6-dihydro-pyridin-3-yl)-propyl]-phenyl}-thiophene-2-carboxylic acid ethyl ester]
EC50: 420 nM

Cn1cc(/C(CC(c2ccc(-c3ccc(C(=O)O)c(F)c3)cc2)c2ccc(Cl)cc2Cl)=N/O)ccc1=O (single isomer, unassigned) [Example 474, 4′-[(−)-1-(2,4-Dichloro-phenyl)-3-[(E)-hydroxyimino]-3-(1-methyl-6-oxo-1,6-dihydro-pyridin-3-yl)-propyl]-3-fluoro-biphenyl-4-carboxylic acid]
EC50: 43 nM

Cn1cc(/C(CC(c2ccc(-c3ccc(C(=O)O)c(F)c3)cc2)c2ccc(Cl)cc2Cl)=N/O)ccc1=O (single isomer, unassigned) [Example 475, 4′-[(+)-1-(2,4-dichloro-phenyl)-3-[(E)-hydroxyimino]-3-(1-methyl-6-oxo-1,6-dihydro-pyridin-3-yl)-propyl]-3-fluoro-biphenyl-4-carboxylic acid]
EC50: 166 nM

Cc1cc(C(=O)O)ccc1-c1ccc(C(C/C(=N\O)c2ccc(=O)n(C)c2)c2ccc(Cl)cc2Cl)cc1 (single isomer, unassigned) [Example 477, 4′-[(−)-1-(2,4-Dichloro-phenyl)-3-[(E)-hydroxyimino]-3-(1-methyl-6-oxo-1,6-dihydro-pyridin-3-yl)-propyl]-2-methyl-biphenyl-4-carboxylic acid]
EC50: 111 nM

Cc1cc(C(=O)O)ccc1-c1ccc(C(C/C(=N\O)c2ccc(=O)n(C)c2)c2ccc(Cl)cc2Cl)cc1 (single isomer, unassigned) [Example 478, 4′-[(+)-1-(2,4-dichloro-phenyl)-3-[(E)-hydroxyimino]-3-(1-methyl-6-oxo-1,6-dihydro-pyridin-3-yl)-propyl]-2-methyl-biphenyl-4-carboxylic acid]
EC50: 375 nM

Cc1ccccc1C(C/C(=N\O)c1ccncc1)c1ccc(-c2cncnc2)cc1 (single isomer, unassigned; (+)) [Example 35, (+)-(E)-1-Pyridin-4-yl-3-(4-pyrimidin-5-yl-phenyl)-3-o-tolyl-propan-1-one oxime]
EC50: 67 nM

Cc1ccccc1C(C/C(=N/O)c1ccncc1)c1ccc(-c2cncnc2)cc1 (single isomer, unassigned; (+)) [Example 38, (+)-(Z)-1-pyridin-4-yl-3-(4-pyrimidin-5-yl-phenyl)-3-o-tolyl-propan-1-one oxime]
EC50: 7650 nM

Cc1ccccc1C(C/C(=N\O)c1cc(Cl)ccc1Cl)c1ccc(Br)cc1 (single isomer, unassigned; (+)) [Example 50, (+)-(E)-3-(4-Bromo-phenyl)-1-(2,5-dichloro-phenyl)-3-o-tolyl-propan-1-one oxime]
EC50: 769 nM

Cn1cc(/C(CC(c2ccc(Br)cc2)c2ccc(Cl)cc2F)=N/O)ccc1=O (single isomer, unassigned; (+)) [Example 239, (+)-5-{3-(4-Bromo-phenyl)-3-(4-chloro-2-fluoro-phenyl)-1-[(E)-hydroxyimino]-propyl}-1-methyl-1H-pyridin-2-one]
EC50: 24 nM

Cn1cc(/C(CC(c2ccc(-c3ccc(C(=O)O)cc3)cc2)c2ccc(Cl)cc2F)=N/O)ccc1=O (single isomer, unassigned; (+)) [Example 241, (+)-4′-[1-(4-Chloro-2-fluoro-phenyl)-3-[(E)-hydroxyimino]-3-(1-methyl-6-oxo-1,6-dihydro-pyridin-3-yl)-propyl]-biphenyl-4-carboxylic acid]
EC50: 170 nM
